Data published in US6958233B2, “Process for the preparation of pharmaceutically acceptable salts of (R,S)-S-adenosyl-L-methionine” (Chementecno S.r.l., priority 2000, dated 2005).

Assays:
[1] = HPLC analysis of the (S)-(+)-SAMe / (R)-(+)-SAMe diastereoisomer content (stability in time); format: physicochemical; conditions: after four months from the date of production
Method: 3 samples of SAMIR® [(R,S)-SAMe], produced by Knoll Farmaceutici S.p.A., were analyzed by HPLC. The values measured for each sample are as follows:
The products obtained according to the process of the invention in EXAMPLES 1-3, samples 4-6 respectively, were analyzed, similarly to what has been described in example 4, after four months from the date of their production.
The measured values for each sample were as follows: […]

[2] = Wu et al., Biochemistry 1983; cited from earlier work
[3] = system: enzymatic transmethylation; conditions: De La Haba et al., J.A.C.S. 1959; cited from earlier work

| Structure (SMILES) | percentage of (R)-(+)-SAMe [1] [%] | percentage of (S)-(+)-SAMe [1] [%] | formation of the inactive diastereoisomer (R)-(+)-SAMe by spontaneous racemisation [2] | enzymatic activity for the transmethylation [3] | percentage of (R)-(+)-SAMe ([1]; listed as sample N. 4) [%] |
| --- | --- | --- | --- | --- | --- |
| C[S+](CC[C@H](N)C(=O)[O-])C[C@H]1O[C@@H](n2cnc3c(N)ncnc32)[C@H](O)[C@@H]1O.Cc1ccc(S(=O)(=O)O)cc1.O=S(=O)(O)O.O=S(=O)(O)O (single isomer, unassigned) [SAMPLE 5, (SS, RS)-SAMe disulphate paratoluensulphonate] | 2 | 98 |  |  |  |
| C[S@@+](CC[C@H](N)C(=O)[O-])C[C@H]1O[C@@H](n2cnc3c(N)ncnc32)C(O)C1O (stereo in doubt) [(S)-(+)-SAMe, (S)-(+)-S-adenosyl-L-methionine] |  |  | about 20% | enzymatically active |  |
| C[S@@+](CC[C@H](N)C(=O)[O-])C[C@H]1O[C@@H](n2cnc3c(N)ncnc32)C(O)C1O (stereo in doubt) [(R)-(+)-SAMe, (R)-(+)-S-adenosyl-L-methionine] |  |  |  | inactive |  |
| C[S+](CC[C@H](N)C(=O)[O-])C[C@H]1O[C@@H](n2cnc3c(N)ncnc32)[C@H](O)[C@@H]1O.Cc1ccc(S(=O)(=O)O)cc1.O=S(=O)(O)O.O=S(=O)(O)O (single isomer, unassigned) [SAMPLE 6] | 2 | 98 |  |  |  |
| C[S+](CC[C@H](N)C(=O)[O-])C[C@H]1O[C@@H](n2cnc3c(N)ncnc32)[C@H](O)[C@@H]1O.Cc1ccc(S(=O)(=O)O)cc1.O=S(=O)(O)O.O=S(=O)(O)O (single isomer, unassigned) [SAMPLE 4] | 1 | 99 |  |  | 1 |
